In patent US20230242585A1, “IMMUNOMODULATORS” (Bristol-Myers Squibb Company, priority 2020, published 2023) one finds IC50 data, which are given here for six compounds.

As usually defined, the pIC50 is −log10 of the IC50, conventionally taken in molar units.

Structures are written as SMILES. pIC50: −log10 of the molar value. Starred links: 1 amine or outer side, 2 acyl side, 3 side chain; linkers in the order of their positions; H or OH if unused. Positions of bridges follow the written chain, without caps; N, C: chain ends. Non-standard residues stand in square brackets, D forms with d. Residues, ends and D or L forms follow the SMILES beside them. X49 = O=C([C@H](CNC[C@@H](O)[C@H](O)[C@@H](O)[C@@H](O)[C@H](O)CO)N[*:1])[*:2]; X40 = O=C([C@H](CNC1[C@@H](O)[C@@H](O)[C@@H](O)[C@H](O)[C@H]1O)N[*:1])[*:2]; X51 = O=C([C@H](CCNC[C@@H](O)[C@@H](O)[C@H](O)[C@H](O)C(O)CO)N[*:1])[*:2]; X50 = O=C([C@H](CNC[C@@H](O)[C@@H](O)[C@H](O)[C@H](O)C(O)CO)N[*:1])[*:2]; X43 = O=C([C@H](CNC[C@@H](O)[C@H](O)[C@@H](O)[C@@H](O)CO)N[*:1])[*:2]; X11 = O=C([C@H](CNC[C@H](O)[C@@H](O)[C@@H](O)[C@H](O)CO)N[*:1])[*:2]; X32 = O=C([C@H](CCNC[C@@H](O)[C@H](O)[C@@H](O)CO)N[*:1])[*:2]; X31 = O=C([C@H](CNC[C@@H](O)[C@H](O)[C@@H](O)CO)N[*:1])[*:2]; Trp(1-CH2COOH) = N[C@@H](Cc1cn(CC(=O)O)c2ccccc12)C(=O)O; Hyp = O=C(O)[C@@H]1C[C@@H](O)CN1; NMeNle = CCCC[C@H](NC)C(=O)O; NMeA = CN[C@@H](C)C(=O)O; Dab = NCC[C@H](N)C(=O)O

T1 sequence (Q9NZQ7 18-239): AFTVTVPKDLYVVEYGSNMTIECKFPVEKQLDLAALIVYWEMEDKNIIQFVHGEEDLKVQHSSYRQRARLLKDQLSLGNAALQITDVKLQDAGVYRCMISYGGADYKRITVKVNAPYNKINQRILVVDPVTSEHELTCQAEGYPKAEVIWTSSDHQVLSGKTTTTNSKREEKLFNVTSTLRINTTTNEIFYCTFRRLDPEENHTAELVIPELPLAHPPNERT

This assay addresses T1, PD-1/PD-L1 (Homo sapiens, UniProt Q9NZQ7).
T1 construct: TVMV protease site (linker) (C); made in house; host or cells: HEK293T cells
The assay can be described thus: PD-1/PD-L1 Homogenous Time-Resolved Fluorescence (HTRF) binding assay. The following applies: PD-L1-His 10 nM, PD-1-Ig 20 nM. A digest of the protocol: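 Compounds preincubated 15 min with PD-L1-His (residues 18-239, 10 nM) in dPBS with 0.1% BSA, 0.05% Tween-20, then PD-1-Ig (residues 25-167, 20 nM) for 15 min. Eu-cryptate anti-Ig (1 nM) and APC anti-His (20 nM) equilibrated 30 min; 665/620 nm ratio read, IC50 derived.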
A general note: TR-FRET usually uses a lanthanide donor and a delayed reading to cut background.
In the case of `CCCC[C@H]1C(=O)N(C)[C@@H](CCCC)C(=O)N[C@@H](CC(C)C)C(=O)N[C@H](C(=O)NCC(N)=O)CSCC(=O)N[C@@H](Cc2ccc(O)cc2)C(=O)N(C)[C@@H](C)C(=O)N[C@@H](CC(N)=O)C(=O)N2CCC[C@H]2C(=O)N[C@@H](CNC[C@@H](O)[C@H](O)[C@@H](O)[C@@H](O)CO)C(=O)N[C@@H](CC(C)C)C(=O)N2C[C@H](O)C[C@H]2C(=O)N[C@@H](Cc2c[nH]c3ccccc23)C(=O)N[C@@H](CCN)C(=O)N[C@@H](Cc2cn(CC(=O)O)c3ccccc23)C(=O)N1C` [Example 2016] ({CH2CO}-Y[NMeA]NP[X43]L[Hyp]W[Dab][Trp(1-CH2COOH)][NMeNle][NMeNle]LCG-NH2; thioether N-14), the pIC50 was 8.70.

`CCCC[C@H]1C(=O)N(C)[C@@H](CCCC)C(=O)N[C@@H](CC(C)C)C(=O)N[C@H](C(=O)NCC(N)=O)CSCC(=O)N[C@@H](Cc2ccc(O)cc2)C(=O)N(C)[C@@H](C)C(=O)N[C@@H](CC(N)=O)C(=O)N2CCC[C@H]2C(=O)N[C@@H](CNC[C@H](O)[C@@H](O)[C@@H](O)[C@H](O)CO)C(=O)N[C@@H](CC(C)C)C(=O)N2C[C@H](O)C[C@H]2C(=O)N[C@@H](Cc2c[nH]c3ccccc23)C(=O)N[C@@H](CCN)C(=O)N[C@@H](Cc2cn(CC(=O)O)c3ccccc23)C(=O)N1C` [Example 2017] ({CH2CO}-Y[NMeA]NP[X11]L[Hyp]W[Dab][Trp(1-CH2COOH)][NMeNle][NMeNle]LCG-NH2; thioether N-14) had a pIC50 of 8.14.

The compound `CCCC[C@H]1C(=O)N(C)[C@@H](CCCC)C(=O)N[C@@H](CC(C)C)C(=O)N[C@H](C(=O)NCC(N)=O)CSCC(=O)N[C@@H](Cc2ccc(O)cc2)C(=O)N(C)[C@@H](C)C(=O)N[C@@H](CC(N)=O)C(=O)N2CCC[C@H]2C(=O)N[C@@H](CNC[C@@H](O)[C@H](O)[C@@H](O)CO)C(=O)N[C@@H](CC(C)C)C(=O)N2C[C@H](O)C[C@H]2C(=O)N[C@@H](Cc2c[nH]c3ccccc23)C(=O)N[C@@H](CCNC[C@@H](O)[C@H](O)[C@@H](O)CO)C(=O)N[C@@H](Cc2cn(CC(=O)O)c3ccccc23)C(=O)N1C` [Example 2018] ({CH2CO}-Y[NMeA]NP[X31]L[Hyp]W[X32][Trp(1-CH2COOH)][NMeNle][NMeNle]LCG-NH2; thioether N-14) had a pIC50 of 8.62. `CCCC[C@H]1C(=O)N(C)[C@@H](CCCC)C(=O)N[C@@H](CC(C)C)C(=O)N[C@H](C(=O)NCC(N)=O)CSCC(=O)N[C@@H](Cc2ccc(O)cc2)C(=O)N(C)[C@@H](C)C(=O)N[C@@H](CC(N)=O)C(=O)N2CCC[C@H]2C(=O)N[C@@H](CNC[C@@H](O)[C@H](O)[C@@H](O)[C@@H](O)[C@H](O)CO)C(=O)N[C@@H](CC(C)C)C(=O)N2C[C@H](O)C[C@H]2C(=O)N[C@@H](Cc2c[nH]c3ccccc23)C(=O)N[C@@H](CCN)C(=O)N[C@@H](Cc2cn(CC(=O)O)c3ccccc23)C(=O)N1C` [Example 2019] ({CH2CO}-Y[NMeA]NP[X49]L[Hyp]W[Dab][Trp(1-CH2COOH)][NMeNle][NMeNle]LCG-NH2; thioether N-14) showed a pIC50 of 8.09.

On to `CCCC[C@H]1C(=O)N(C)[C@@H](CCCC)C(=O)N[C@@H](CC(C)C)C(=O)N[C@H](C(=O)NCC(N)=O)CSCC(=O)N[C@@H](Cc2ccc(O)cc2)C(=O)N(C)[C@@H](C)C(=O)N[C@@H](CC(N)=O)C(=O)N2CCC[C@H]2C(=O)N[C@@H](CNC2[C@@H](O)[C@@H](O)[C@@H](O)[C@H](O)[C@H]2O)C(=O)N[C@@H](CC(C)C)C(=O)N2C[C@H](O)C[C@H]2C(=O)N[C@@H](Cc2c[nH]c3ccccc23)C(=O)N[C@@H](CCN)C(=O)N[C@@H](Cc2cn(CC(=O)O)c3ccccc23)C(=O)N1C` (stereo partly drawn) [Example 2020] ({CH2CO}-Y[NMeA]NP[X40]L[Hyp]W[Dab][Trp(1-CH2COOH)][NMeNle][NMeNle]LCG-NH2; thioether N-14), for which the pIC50 is 8.30. On to `CCCC[C@H]1C(=O)N(C)[C@@H](CCCC)C(=O)N[C@@H](CC(C)C)C(=O)N[C@H](C(=O)NCC(N)=O)CSCC(=O)N[C@@H](Cc2ccc(O)cc2)C(=O)N(C)[C@@H](C)C(=O)N[C@@H](CC(N)=O)C(=O)N2CCC[C@H]2C(=O)N[C@@H](CNC[C@@H](O)[C@@H](O)[C@H](O)[C@H](O)C(O)CO)C(=O)N[C@@H](CC(C)C)C(=O)N2C[C@H](O)C[C@H]2C(=O)N[C@@H](Cc2c[nH]c3ccccc23)C(=O)N[C@@H](CCNC[C@@H](O)[C@@H](O)[C@H](O)[C@H](O)C(O)CO)C(=O)N[C@@H](Cc2cn(CC(=O)O)c3ccccc23)C(=O)N1C` (stereo partly drawn) [Example 2021] ({CH2CO}-Y[NMeA]NP[X50]L[Hyp]W[X51][Trp(1-CH2COOH)][NMeNle][NMeNle]LCG-NH2; thioether N-14), for which the pIC50 is 8.05.
